In the supplement of paper PMC10307832:

Key:
Experiment in all cases: relative viability (nuclei count vs DMSO), 5 days (fraction); higher = more cells survive
[1] = tested on: LU99A
Summary of the method: (§1)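 Five library-drug doses in √10 steps were combined with a fixed anchor-drug dose, or a single drug was given alone, by pin tool to lung cancer cell lines in 1536-well plates the day after seeding. Nuclei were stained and counted after 5 days. Relative viability is the nuclei count in treated wells over that in vehicle wells, taken as the median of duplicate plates.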

[2] = tested on: NCI-H2347
Summary of the method: as §1

[3] = tested on: LC-2-ad
Summary of the method: as §1

[4] = tested on: NCI-H2085
Summary of the method: as §1

[5] = tested on: SW 1573
Summary of the method: as §1

[6] = tested on: HCC-78
Summary of the method: as §1

[7] = tested on: PC-14
Summary of the method: as §1

[8] = tested on: UMC-11
Summary of the method: as §1

[9] = tested on: HARA
Summary of the method: as §1

[10] = tested on: NCI-H1355
Summary of the method: as §1

[11] = tested on: NCI-H2023
Summary of the method: as §1

[12] = tested on: NCI-H2126
Summary of the method: as §1

[13] = tested on: NCI-H1651
Summary of the method: as §1

[14] = tested on: NCI-H358
Summary of the method: as §1

[15] = tested on: ABC-1
Summary of the method: as §1

[16] = tested on: NCI-H1993
Summary of the method: as §1

[17] = tested on: COR-L23
Summary of the method: as §1

[18] = tested on: NCI-H650
Summary of the method: as §1

[19] = tested on: NCI-H838
Summary of the method: as §1

[20] = tested on: EPLC-272H
Summary of the method: as §1

[21] = tested on: NCI-H1915
Summary of the method: as §1

[22] = tested on: HCC-15
Summary of the method: as §1

Oc1nc(-c2ccc(C(F)(F)F)cc2)nc2c1CSCC2 [XAV939] + C[C@@H](Oc1cc(-c2cnn(C3CCNCC3)c2)cnc1N)c1c(Cl)ccc(F)c1Cl [Crizotinib] (partner 1 µM)
relative viability ([1]; first compound 0.08 µM): 0.539 | relative viability ([1]; first compound 0.253 µM): 0.55 | relative viability ([1]; first compound 0.8 µM): 0.567 | relative viability ([1]; first compound 2.53 µM): 0.504 | relative viability ([2]; first compound 0.08 µM): 0.692 | relative viability ([2]; first compound 0.253 µM): 0.648 | relative viability ([2]; first compound 0.8 µM): 0.75 | relative viability ([2]; first compound 2.53 µM): 0.515 | relative viability ([3]; first compound 0.08 µM): 0.468 | relative viability ([3]; first compound 0.253 µM): 0.382 | relative viability ([3]; first compound 0.8 µM): 0.435 | relative viability ([3]; first compound 2.53 µM): 0.489 | relative viability ([4]; first compound 0.08 µM): 0.961 | relative viability ([4]; first compound 0.253 µM): 0.826 | relative viability ([4]; first compound 0.8 µM): 0.917 | relative viability ([4]; first compound 2.53 µM): 0.734 | relative viability ([5]; first compound 0.08 µM): 0.948 | relative viability ([5]; first compound 0.253 µM): 0.85 | relative viability ([5]; first compound 0.8 µM): 0.757 | relative viability ([5]; first compound 2.53 µM): 0.646 | relative viability ([6]; first compound 0.08 µM): 0.342 | relative viability ([6]; first compound 0.253 µM): 0.316 | relative viability ([6]; first compound 0.8 µM): 0.326 | relative viability ([6]; first compound 2.53 µM): 0.299 | relative viability ([7]; first compound 0.08 µM): 0.97 | relative viability ([7]; first compound 0.253 µM): 0.818 | relative viability ([7]; first compound 0.8 µM): 0.834 | relative viability ([7]; first compound 2.53 µM): 0.749 | relative viability ([8]; first compound 0.08 µM): 0.777 | relative viability ([8]; first compound 0.8 µM): 0.578 | relative viability ([8]; first compound 2.53 µM): 0.414 | relative viability ([9]; first compound 0.08 µM): 1.14 | relative viability ([9]; first compound 0.253 µM): 0.785 | relative viability ([9]; first compound 0.8 µM): 1.05 | relative viability ([9]; first compound 2.53 µM): 0.932 | relative viability ([10]; first compound 0.08 µM): 1.05 | relative viability ([10]; first compound 0.253 µM): 0.9 | relative viability ([10]; first compound 0.8 µM): 0.828 | relative viability ([10]; first compound 2.53 µM): 0.725 | relative viability ([11]; first compound 0.08 µM): 0.598 | relative viability ([11]; first compound 0.253 µM): 0.581 | relative viability ([11]; first compound 0.8 µM): 0.468 | relative viability ([11]; first compound 2.53 µM): 0.43 | relative viability ([12]; first compound 0.08 µM): 1.12 | relative viability ([12]; first compound 0.253 µM): 0.95 | relative viability ([12]; first compound 0.8 µM): 0.938 | relative viability ([12]; first compound 2.53 µM): 0.828 | relative viability ([13]; first compound 0.08 µM): 0.988 | relative viability ([13]; first compound 0.253 µM): 0.798 | relative viability ([13]; first compound 0.8 µM): 0.857 | relative viability ([13]; first compound 2.53 µM): 0.856 | relative viability ([14]; first compound 0.08 µM): 0.729 | relative viability ([14]; first compound 0.253 µM): 0.45 | relative viability ([14]; first compound 0.8 µM): 0.563 | relative viability ([14]; first compound 2.53 µM): 0.573 | relative viability ([15]; first compound 0.08 µM): 1.32 | relative viability ([15]; first compound 0.253 µM): 0.905 | relative viability ([15]; first compound 0.8 µM): 0.908 | relative viability ([15]; first compound 2.53 µM): 0.603 | relative viability ([16]; first compound 0.8 µM): 0.85 | relative viability ([16]; first compound 2.53 µM): 0.768 | relative viability ([17]; first compound 0.08 µM): 0.77 | relative viability ([17]; first compound 0.253 µM): 0.675 | relative viability ([17]; first compound 0.8 µM): 0.671 | relative viability ([17]; first compound 2.53 µM): 0.555 | relative viability ([18]; first compound 0.08 µM): 1.01 | relative viability ([18]; first compound 0.253 µM): 0.945 | relative viability ([18]; first compound 0.8 µM): 0.736 | relative viability ([18]; first compound 2.53 µM): 0.545 | relative viability ([19]; first compound 0.08 µM): 0.875 | relative viability ([19]; first compound 0.253 µM): 0.719 | relative viability ([19]; first compound 0.8 µM): 0.759 | relative viability ([19]; first compound 2.53 µM): 0.432 | relative viability ([20]; first compound 0.08 µM): 0.956 | relative viability ([20]; first compound 0.253 µM): 0.96 | relative viability ([20]; first compound 0.8 µM): 0.995 | relative viability ([20]; first compound 2.53 µM): 0.908 | relative viability ([21]; first compound 0.08 µM): 0.949 | relative viability ([21]; first compound 0.253 µM): 0.899 | relative viability ([21]; first compound 0.8 µM): 0.891 | relative viability ([21]; first compound 2.53 µM): 0.86 | relative viability ([22]; first compound 0.08 µM): 0.968 | relative viability ([22]; first compound 0.253 µM): 0.746 | relative viability ([22]; first compound 0.8 µM): 0.823 | relative viability ([22]; first compound 2.53 µM): 0.743
